Measured values from paper PMC8320071 (ACS Omega, 2021).

B1: leucine aminopeptidase from Leishmania donovani (LdLAP) (Leishmania donovani) (protein)
chain: MLRRVLSRGPLPRSLSVGPAAKLTANRGKLAKSRGVHVHFLTTAECAAAAGDASAPIPPGFTGKAGEVDFQTLWATAQDPATAESALTKSGRKAAGARRIAEKPAELVAGMGAHSTVRDYRLAVTAAVRKAKMCNAAWVSLHPPKQDVFTMTDPYHPPQRLKGHEMVEKTAIFAVTGAYQYDRLKSGTLAPKDPAKTGSTRARRAESRAKPPAAPPPPMELVVASSNAQAVRAGEVIGHCVNDARNLGNLREDEGVPEFYAEWAKKYMIPEGIKVRKVLRGQQLEGAGLHLMYNVGRGSRYEPYLMVLEYIGNPRSSATTAIVGKGVTFDCGGLNIKPYNSMETMHSDMMGAATAFCTLKAIAKLQLPINVVAAVGLVENAIGPESYHPSSIITSLKGLTVEVLNTDAEGRLVLADVLTYVQKYAPLDKKPTRIIDLATLTGAIIVGLGSRRAGLFSPSAILANSLMATGAQCGEELWPMPIGDEHKDMMKGGIADLINAAPGRQAGSCTAAAFLSNFVEPEVQWAHLDIAGVADVGDKPKGYEPAGVTGFGVQLLVDFLRHNKP

Columns and labels:
[1] = molecular target: T1, leucine aminopeptidase from Leishmania donovani (LdLAP) (Leishmania donovani, UniProt A0A3S7WXR2); experiment: Leu-AMC fluorogenic aminopeptidase assay with double-reciprocal plots; type: biochemical
T1 sequence (A0A3S7WXR2 1-565): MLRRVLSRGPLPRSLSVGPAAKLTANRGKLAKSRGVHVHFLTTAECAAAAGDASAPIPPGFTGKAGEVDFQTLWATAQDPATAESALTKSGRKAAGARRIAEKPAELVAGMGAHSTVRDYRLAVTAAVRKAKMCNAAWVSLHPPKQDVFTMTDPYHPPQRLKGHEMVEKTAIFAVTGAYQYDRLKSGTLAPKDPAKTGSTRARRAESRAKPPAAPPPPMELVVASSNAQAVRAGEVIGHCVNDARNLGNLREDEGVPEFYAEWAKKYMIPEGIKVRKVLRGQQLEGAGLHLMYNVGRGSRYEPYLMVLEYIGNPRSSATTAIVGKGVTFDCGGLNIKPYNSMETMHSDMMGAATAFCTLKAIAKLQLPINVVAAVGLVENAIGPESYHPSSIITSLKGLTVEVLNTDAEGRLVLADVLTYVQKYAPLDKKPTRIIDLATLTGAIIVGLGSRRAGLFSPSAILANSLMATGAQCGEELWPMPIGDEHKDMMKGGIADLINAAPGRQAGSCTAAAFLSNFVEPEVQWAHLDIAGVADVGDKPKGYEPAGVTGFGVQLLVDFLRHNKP

purified protein = substrate: Cc1cc(=O)oc2cc(NC(=O)[C@@H](N)CC(C)C)ccc12; experiment: purified protein; settings: Mn(II)

Molecule | Ki [1] | Km (purified protein) | kcat/Km (purified protein)
CCCCC[C@H](CC(=O)NO)C(=O)N[C@H](C(=O)N1CCC[C@H]1CO)C(C)C [actinonin] | 2.7 nM |  | 
CC(C)C[C@H](NC(=O)[C@@H](O)[C@H](N)Cc1ccccc1)C(=O)O [bestatin] | 4.38 nM |  | 
B1 |  | 57.29 µM | 5820 M⁻¹ s⁻¹
